Test system: A498 complex spheroids with HUVEC/MSC, growth
Assay: Anticancer human tumor A498 cell line growth inhibition [AhR];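 note: seven day exposure starting three days after spheroid seeding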;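 for viability, T/C: luminescence signal used as a surrogate for viable cells; luminescence viability scaled so 100% equals DMSO vehicle wells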
Conditions: for IC50: curve of first compound; for viability, T/C: stronger effect = lower value; active = viability on the fitted dose curve at most 10% of control; inactive = the rest
How it was run: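 Complex tumor spheroids co-cultured with HUVEC and human MSC stroma; AhR antagonists tested in combination with standard-of-care and investigational agents. Top concentration at or near clinical Cmax (else 10 microM), half-log dilutions; growth expressed as percent test/control.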

[1] = second compound 0.1 µM, first compound 0.0316 µM
[2] = second compound 0.1 µM, first compound 0.1 µM
[3] = second compound 0.316 µM, first compound 0.0316 µM
[4] = second compound 0.316 µM, first compound 0.1 µM
[5] = second compound 1 µM, first compound 0.0316 µM
[6] = second compound 1 µM, first compound 0.1 µM
[7] = second compound 3.16 µM, first compound 0.0316 µM
[8] = second compound 3.16 µM, first compound 0.1 µM
[9] = second compound 10 µM, first compound 0.0316 µM
[10] = second compound 10 µM, first compound 0.1 µM

CC1(C)CCC(CN2CCN(c3ccc(C(=O)NS(=O)(=O)c4ccc(NCC5CCOCC5)c([N+](=O)[O-])c4)c(Oc4cnc5[nH]ccc5c4)c3)CC2)=C(c2ccc(Cl)cc2)C1 + Cc1cncc(-c2nc(NCCc3c[nH]c4ccccc34)c3ncn(C(C)C)c3n2)c1
5370 nM: IC50 (second compound 0.1 µM)
5320 nM: IC50 (second compound 0.316 µM)
active: viability, T/C [9] 2.24% | viability, T/C [10] 2.27% | viability, T/C (second compound 10 µM, first compound 0.316 µM) 3.12% | viability, T/C (second compound 10 µM, first compound 1 µM) 4.57% | viability, T/C (second compound 10 µM, first compound 3.16 µM) 3.12% | viability, T/C (second compound 10 µM, first compound 10 µM) 5.62%
inactive: viability, T/C [1] 88.5% | viability, T/C [2] 90% | viability, T/C (second compound 0.1 µM, first compound 0.316 µM) 85.3% | viability, T/C (second compound 0.1 µM, first compound 1 µM) 78.6% | viability, T/C (second compound 0.1 µM, first compound 3.16 µM) 72.3% | viability, T/C (second compound 0.1 µM, first compound 10 µM) 26% | viability, T/C [3] 89.2% | viability, T/C [4] 92.2% | viability, T/C (second compound 0.316 µM, first compound 0.316 µM) 95.1% | viability, T/C (second compound 0.316 µM, first compound 1 µM) 78.3% | viability, T/C (second compound 0.316 µM, first compound 3.16 µM) 71% | viability, T/C (second compound 0.316 µM, first compound 10 µM) 26.6% | viability, T/C [5] 84.7% | viability, T/C [6] 90.3% | viability, T/C (second compound 1 µM, first compound 0.316 µM) 87% | viability, T/C (second compound 1 µM, first compound 1 µM) 73.5% | viability, T/C (second compound 1 µM, first compound 3.16 µM) 66.9% | viability, T/C (second compound 1 µM, first compound 10 µM) 28.3% | viability, T/C [7] 43.6% | viability, T/C [8] 43.4% | viability, T/C (second compound 3.16 µM, first compound 0.316 µM) 48.5% | viability, T/C (second compound 3.16 µM, first compound 1 µM) 40.9% | viability, T/C (second compound 3.16 µM, first compound 3.16 µM) 39.6% | viability, T/C (second compound 3.16 µM, first compound 10 µM) 24.5%
5030 nM: IC50 (second compound 1 µM)
< 31.6 nM: IC50 (second compound 3.16 µM) | IC50 (second compound 10 µM)

CCN(c1cc(-c2ccc(CN3CCOCC3)cc2)cc(C(=O)NCc2c(C)cc(C)[nH]c2=O)c1C)C1CCOCC1 + Cc1cncc(-c2nc(NCCc3c[nH]c4ccccc34)c3ncn(C(C)C)c3n2)c1
< 9.49 nM: IC50 (second compound 3.16 µM) | IC50 (second compound 10 µM)
> 3000 nM: IC50 (second compound 0.1 µM) | IC50 (second compound 0.316 µM) | IC50 (second compound 1 µM)
active: viability, T/C (second compound 10 µM, first compound 0.00949 µM) 4.35% | viability, T/C (second compound 10 µM, first compound 0.03 µM) 4.58% | viability, T/C (second compound 10 µM, first compound 0.0949 µM) 6.5% | viability, T/C (second compound 10 µM, first compound 0.3 µM) 4.8% | viability, T/C (second compound 10 µM, first compound 0.949 µM) 2.06% | viability, T/C (second compound 10 µM, first compound 3 µM) 1.26%
inactive: viability, T/C (second compound 0.1 µM, first compound 0.00949 µM) 94% | viability, T/C (second compound 0.1 µM, first compound 0.03 µM) 97% | viability, T/C (second compound 0.1 µM, first compound 0.0949 µM) 90.2% | viability, T/C (second compound 0.1 µM, first compound 0.3 µM) 87.7% | viability, T/C (second compound 0.1 µM, first compound 0.949 µM) 97.7% | viability, T/C (second compound 0.1 µM, first compound 3 µM) 88.4% | viability, T/C (second compound 0.316 µM, first compound 0.00949 µM) 103% | viability, T/C (second compound 0.316 µM, first compound 0.03 µM) 94.2% | viability, T/C (second compound 0.316 µM, first compound 0.0949 µM) 101% | viability, T/C (second compound 0.316 µM, first compound 0.3 µM) 90% | viability, T/C (second compound 0.316 µM, first compound 0.949 µM) 97.4% | viability, T/C (second compound 0.316 µM, first compound 3 µM) 91.5% | viability, T/C (second compound 1 µM, first compound 0.00949 µM) 88.8% | viability, T/C (second compound 1 µM, first compound 0.03 µM) 91.4% | viability, T/C (second compound 1 µM, first compound 0.0949 µM) 86.1% | viability, T/C (second compound 1 µM, first compound 0.3 µM) 81.3% | viability, T/C (second compound 1 µM, first compound 0.949 µM) 82% | viability, T/C (second compound 1 µM, first compound 3 µM) 88.1% | viability, T/C (second compound 3.16 µM, first compound 0.00949 µM) 44.6% | viability, T/C (second compound 3.16 µM, first compound 0.03 µM) 45% | viability, T/C (second compound 3.16 µM, first compound 0.0949 µM) 47.2% | viability, T/C (second compound 3.16 µM, first compound 0.3 µM) 44.5% | viability, T/C (second compound 3.16 µM, first compound 0.949 µM) 45.7% | viability, T/C (second compound 3.16 µM, first compound 3 µM) 39.5%

Cn1ncnc1C1c2n[nH]c(=O)c3cc(F)cc(c23)NC1c1ccc(F)cc1 (stereo not given) + Cc1cncc(-c2nc(NCCc3c[nH]c4ccccc34)c3ncn(C(C)C)c3n2)c1
> 100 nM: IC50 (second compound 0.1 µM) | IC50 (second compound 0.316 µM) | IC50 (second compound 1 µM) | IC50 (second compound 3.16 µM)
< 0.316 nM: IC50 (second compound 10 µM)
inactive: viability, T/C (second compound 0.1 µM, first compound 0.000316 µM) 96.5% | viability, T/C (second compound 0.1 µM, first compound 0.001 µM) 96.6% | viability, T/C (second compound 0.1 µM, first compound 0.00316 µM) 96.6% | viability, T/C (second compound 0.1 µM, first compound 0.01 µM) 89% | viability, T/C [1] 87% | viability, T/C [2] 94.1% | viability, T/C (second compound 0.316 µM, first compound 0.000316 µM) 97.1% | viability, T/C (second compound 0.316 µM, first compound 0.001 µM) 99.2% | viability, T/C (second compound 0.316 µM, first compound 0.00316 µM) 92.9% | viability, T/C (second compound 0.316 µM, first compound 0.01 µM) 92.3% | viability, T/C [3] 95.2% | viability, T/C [4] 92.3% | viability, T/C (second compound 1 µM, first compound 0.000316 µM) 88.4% | viability, T/C (second compound 1 µM, first compound 0.001 µM) 98.9% | viability, T/C (second compound 1 µM, first compound 0.00316 µM) 91.2% | viability, T/C (second compound 1 µM, first compound 0.01 µM) 84.4% | viability, T/C [5] 85.5% | viability, T/C [6] 89.8% | viability, T/C (second compound 3.16 µM, first compound 0.000316 µM) 60.6% | viability, T/C (second compound 3.16 µM, first compound 0.001 µM) 63.6% | viability, T/C (second compound 3.16 µM, first compound 0.00316 µM) 65% | viability, T/C (second compound 3.16 µM, first compound 0.01 µM) 70.1% | viability, T/C [7] 59.8% | viability, T/C [8] 67.8%
active: viability, T/C (second compound 10 µM, first compound 0.000316 µM) 5.06% | viability, T/C (second compound 10 µM, first compound 0.001 µM) 6.23% | viability, T/C (second compound 10 µM, first compound 0.00316 µM) 6.28% | viability, T/C (second compound 10 µM, first compound 0.01 µM) 7.11% | viability, T/C [9] 6.12% | viability, T/C [10] 8.13%
